Measurements published in US11215608B2, “Methods of determining cellular chemosensitivity” (Dana-Farber Cancer Institute, Inc., priority 2006, dated 2022).
pEC50: −log10 of the molar value. Several values for one entry are separate records, joined by “and”; a condition that tells them apart may be missing. Equal values may be shown once. Read-outs that look alike come from different tables or passages of the source.

Experiments:
CLL cells [1] = assay: Annexin-V death assay of freshly isolated primary CLL cells; assay type: cell-based, human; details: 48 hours
Protocol: (§1) Cells were stained with fluorescent conjugates of Annexin-V (BioVision) and propidium iodide (PI) and analyzed on a FACSCalibur machine (Becton-Dickinson).
(§2) 15 ml of blood in heparin treated tubes was obtained from each anonymous CLL patient and processed without freezing. Equal volume of media (RPMI medium, 10% […], supplemented with […] and 10 mg/ml transferrin) was mixed with each sample and CLL cells isolated by centrifugation through Ficoll-PAQUE Plus (Amersham). Cells were washed twice in media and cultured at a density of 2.0×10^6 cells/ml for up to 48 hours. Samples for FIG. 11A were obtained from 24 consecutive patients identified with WBC >50,000/μl. All guidelines and regulations were followed in accordance with IRB protocols #99-224 (Dana-Farber Cancer Institute). Normal PBMC's were obtained from tubing discarded following platelet donation by anonymous normal donors and processed as above, except cultured without insulin and transferrin.
Experimental replicates were performed using lysates or mitochondria from different CLL samples. In main body, where a P value is given, it was obtained by using a two-tailed Students t-test, and P<0.05 was considered statistically significant. GraphPad Prism software was used to determine EC50 values by non-linear dose-response curve fitting and to perform Mann-Whitney nonparametric testing in Table 5.
Freshly isolated primary CLL cells were incubated with ABT-737 or negative control enantiomer. After 48 hours, death was assessed using Annexin-V staining.

[2] = test system: peripheral blood mononuclear cells (PBMC); assay: Annexin-V death assay of normal PBMC; assay type: cell-based; details: Homo sapiens, 24 hours, read-out: EC50, PBMC from normal donors
Protocol: as §1, §2
CLL cells have shown sensitivity to ABT-737, so they were selected as a possible initial cancer model of BCL-2 dependence (Oltersdorf et al., 2005). Freshly isolated primary CLL cells were incubated with ABT-737 or negative control enantiomer. After 48 hours, death was assessed using Annexin-V staining. […] Directly targeting the apoptotic machinery might be expected to induce apoptosis rapidly.

FL5.12 cells = assay: FL5.12 cell survival by Annexin V; assay type: cell-based, murine
Protocol: as §1
FL5.12 cells were cultured as described previously in Iscove's modified Dulbecco's medium, 10% fetal bovine serum, 1000 ug/ml G418 with or without IL-3 provided by 10% WEHI-3B supplement (supernatant of IL-3 secreting WEHI-3B cells). FL5.12 cells were stably transfected with a vector containing a neomycin resistance construct and either human BCL-2 cDNA (FL5.12-BCL-2) or no insert (wt). 2B4 cells were cultured in RPMI 1640 supplemented with 10% fetal bovine serum, 100 U/ml penicillin, 100 ug/ml streptomycin, 10 uM non-essential amino acids and 8 ul/L betamercaptoethanol. Stably transfected 2B4 cells were isolated after transfection with pLZR-GFP retroviral vector or vector with Flag-Mc1-1 (kind gift from Joe Opferman).
In order to test whether mitochondrial dependence on individual antiapoptotic protein function can be correlated with cellular behavior, cellular models of defined antiapoptotic dependence were investigated. First, it was determined if cellular requirement for BCL-2 for cellular survival correlates with the BCL-2 signature of mitochondrial sensitivity to sensitizer BH3 domains found in FIG. 1B. The pro-lymphocytic murine FL5.12 cell line requires IL-3 to maintain survival. […]

BAX = BAX oligomerization / activation in mitochondria of IL-3 starved FL5.12-BCL-2 cells; assay type: biochemical, murine
Protocol: Mitochondria were isolated from wt FL5.12 cells and FL5.12-BCL-2 cells in the presence of IL-3, and from FL5.12-BCL-2 cells following 24 hours of IL-3 deprivation. […] Mitochondrial pellets were subjected to chemical crosslinking as previously described (Letai et al., 2002).
This model predicts that BCL-2 acts upstream of BAX activation by intercepting activator BH3 molecules. To test this prediction, in FIG. 6E, immunoprecipitation was performed with an antibody that recognizes only the activated form of BAX which exposes an N-terminus epitope (Desagher ct al., 1999; Hsu and You le, 1997). wt or BCL-2 expressing FL5.12 cells were exposed to IL-3 withdrawal as indicated.

[3] = test system: SU-DHL4, SU-DHL6, SU-DHL8, SU-DHL 10; assay: Lymphoma cell line sensitivity to agents; assay type: cell-based; details: four lymphoma cell lines compared
Protocol: Only cells that are dependent on BCL-2 for survival are predicted to respond to BCL-2 antagonists like ABT-737. […] To test this, cells were treated with vincristine.

CLL cells [4] = assay: Annexin-V death assay of freshly isolated primary CLL cells; assay type: cell-based, human; details: five samples
BCL-2 = BCL-2 (Homo sapiens, UniProt P10415); details: cited from earlier work
BCL-XL = BCL-XL (Homo sapiens, UniProt Q07817); details: cited from earlier work
BCL-w = biological target: T1, BCL-w (Homo sapiens, UniProt Q92843); details: cited from earlier work
T1 sequence (Q92843 1-193): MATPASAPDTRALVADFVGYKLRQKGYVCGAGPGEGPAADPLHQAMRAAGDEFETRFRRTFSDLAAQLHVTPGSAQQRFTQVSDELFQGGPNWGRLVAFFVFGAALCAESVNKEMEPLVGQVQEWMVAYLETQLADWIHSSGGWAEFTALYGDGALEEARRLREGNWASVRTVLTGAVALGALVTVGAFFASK

Chain of BCL-XL (Q07817 whole entry, species assumed): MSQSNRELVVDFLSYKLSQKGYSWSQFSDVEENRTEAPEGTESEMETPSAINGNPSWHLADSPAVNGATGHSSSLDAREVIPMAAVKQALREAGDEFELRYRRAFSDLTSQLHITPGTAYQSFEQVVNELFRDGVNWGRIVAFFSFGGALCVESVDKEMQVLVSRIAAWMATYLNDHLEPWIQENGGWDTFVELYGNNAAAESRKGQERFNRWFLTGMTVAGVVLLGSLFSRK
Chain of BCL-2 (P10415 whole entry, species assumed): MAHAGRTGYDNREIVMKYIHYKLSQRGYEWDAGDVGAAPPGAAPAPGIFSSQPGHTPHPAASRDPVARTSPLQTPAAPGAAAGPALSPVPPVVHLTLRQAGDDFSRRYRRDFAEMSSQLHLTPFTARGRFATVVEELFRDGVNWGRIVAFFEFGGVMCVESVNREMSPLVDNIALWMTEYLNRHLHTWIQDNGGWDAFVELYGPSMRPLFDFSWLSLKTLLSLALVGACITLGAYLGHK

CN(C)CC[C@H](CSc1ccccc1)Nc1ccc(S(=O)(=O)NC(=O)c2ccc(N3CCN(Cc4ccccc4-c4ccc(Cl)cc4)CC3)cc2)cc1[N+](=O)[O-] [ABT-737]
pEC50 (CLL cells [1]; CLL cells of one patient per row (V1-V24), read-out: EC50 ABT-737): 8.44 and 8.68 and 8.51 and 8.72 and 8.39 and 8.06 and 8.24 and 8.22 and 8.48 and 8.19 and 8.54 and 8.03 and 8.64 and 8.32 and 8.40 and 8.13 and 8.21 and 8.15 and 8.49 and 8.46 | pEC50 (CLL cells [1]; Homo sapiens, CLL cell, 48 h, twenty-four CLL samples, read-out: mean EC50, apoptosis of CLL cells): 8.35 | pEC50 (CLL cells [1]; Homo sapiens, CLL cell, 48 h, twenty-four CLL samples, read-out: range of EC50 over CLL samples): 8.03 to 8.72 | pEC50 [2]: < 6.00 | toxicity (FL5.12 cells; IL-3 replete wt FL5.12 cells): non-toxic | cell death (FL5.12 cells; IL-3 starved FL5.12-BCL-2 cells, 24 hours): induced cell death in the IL-3 starved | cytochrome c release and BAX activation (BAX; mitochondria from IL-3 starved cells): restored cytochrome c release and BAX activation | BAX oligomerization (BAX; peptides 30 uM, ABT-737 10 uM, 35 minutes): results in BAX oligomerization | cell sensitivity to the agent [3]: BH3 profiling accurately predicted response to ABT-737 | response of CLL cells after four hours (CLL cells [4]): responded similarly compared to 48-hour treatment | affinity to BCL-2 (BCL-2): sub-nanomolar range | affinity to BCL-XL (BCL-XL): sub-nanomolar range | affinity to BCL-w (BCL-w): sub-nanomolar range
